Source: patent US20230302104A1, “TREATMENT AND/OR PREVENTION OF A DISEASE OR A SYNDROME RELATED TO A VIRUS INFECTION” (priority 2020, published 2023)

Tested on: SARS-CoV pseudovirus entry in ACE2 overexpressing A549 human lung alveolar basal epithelium cells
Format: cell-based

Substance: rhAAT
- SARS-CoV pseudovirus entry: inhibits viral entry of several viruses
